Laboratory results taken from paper PMC6024615, “Effect of Biliary Drainage on the Toxicity and Toxicokinetics of Amanita exitialis in Beagles” (Toxins, 2018).
Read-outs that look alike come from different tables or passages of the source.

Tests used:
[1] = Peptide toxins in the blood / toxicokinetics in beagles with biliary drainage; assay type: in vivo, beagle dogs; design: Dose normalized AUC (0–∞) / Dose normalized Cmax: unit not given here; settings: for T1/2: UPLC-ESI-MS/MS
Protocol: The study was approved by National Institute of Occupational Health and Poison Control review board for animal experiments. Twenty-four male beagles (age, 8–10 months; weight, 10 ± 1 kg) were obtained from Beijing Institute of Xieerxin Biology Resource (Beijing, China). They were randomly divided into four groups of six animals each: control, biliary drainage, and 20 and 60 mg/kg with biliary drainage groups. The biliary drainage operation was conducted in all groups barring the control group. The dogs were dressed in homemade underwear, coats, and Elizabeth circles for a week to ensure pre-experimental acclimatization (Figure S8a–c). After determining the baseline values for biochemical indicators, the dogs were fasted for 24 h but received water ad libitum. They were anesthetized by intravenous administration of pentobarbital sodium (3%, 1 mL/kg) during the surgery. A temperature of 38–39 °C was maintained with a warming mat. After skin preservation and sterilization, the abdominal cavity was opened through the central abdomen. The abdomen was explored and blunt dissection of the common bile duct was performed (Figure S8d). The common bile duct and its branches were ligated from the intestinal side. A 7.0-Fr drainage catheter (COOK, Bloomington, IN, USA) was percutaneously inserted into the gallbladder, and a medical drainage bag was connected to the drainage catheter coming out of the abdominal cavity. Each opened layer, including the peritoneum, abdominal wall muscle, and skin, was closed with suture. The operative incision was protected with sterile gauze and a bandage, and the dogs were dressed in homemade underwear, coats, and Elizabeth circles. The drainage bag was placed in the pocket of the coat (Figure S8e). After the anesthetic wore off, the dogs were placed in cages, and food and water were provided ad libitum. The operative incision was sterilized with iodophor twice a day until stitches were removed six days after surgery. The drainage bag was replaced every day. On the eighth day after surgery, the 20 and 60 mg/kg with biliary drainage groups were orally administered a lyophilized powder of Amanita exitialis in starch capsules. In control and bile drainage group, the beagle dogs were fed with empty capsules. Immediately after dosing, the animals were placed in their cages, and food and water were provided ad libitum. Dogs were sacrificed with an overdose of sodium pentobarbital at the end of the experiment. All procedures were performed according to the ethical standards of the National Institutes of Health Guide for Animal Welfare and approved by the Institutional Animal Care and Use Committee (EAWE-2017-005).
Peptide toxins in blood and urine samples were analyzed as described previously. Bile samples from Days 0–1, Days 1–2, Days 2–3, and Days 3–4 were collected and stored in medical drainage bags and the bile volume was recorded. Plasma and urine samples were stored at 2–8 °C until analysis for peptide toxins.
UPLC and MS/MS parameters were as described in our previous study. The limit of detection and limit of quantitation of each toxin in the bile were 0.03 mg/kg and 0.5 mg/kg, respectively.
Toxicokinetic parameters were described in our previous study. Measurement data are reported as mean ± standard deviation values and enumeration data are reported as percentage (%). […] SPSS 22.0 (IBM Corporation, Armonk, NY, USA, 2015) was used for statistical analysis. The criterion for statistical significance was p ≤ 0.05. Except for the biliary drainage operation, the animals and methods in our present study are in accordance with our previously published study. Thus, by directly comparing the data from this study with those from our published studies on Amanita exitialis-exposed beagles without biliary drainage, we can evaluate the impact of biliary drainage on the toxicity and toxicokinetics of Amanita exitialis in beagles.

[2] = cited from earlier work
Protocol: The difference in detectable time in the urine can be explained by the low level of internal exposure (amatoxins in the blood). […] The daily amounts of peptide toxins excreted in urine in beagles without biliary drainage(mg). Time after α-Amanitin β-Amanitin Phallacidin ingestion 20 mg/kg 60 mg/kg 20 mg/kg 60 mg/kg 20 mg/kg 60 mg/kg group group group group group group 0-1d 0.0379 0.0593 0.0156 0.0251 0.0035 0.0088 (97.9%) (92.8%) (99.9%) (94.7%) (94.2%) (76%) 1-2d 0.0388 0.0618 0.01567 0.0255 0.0037 0.0110 (99.995%) (97.5%) (100%) (96.2%) (100%) (93%) 2-3d 0.0002 0.0626 0 0.0260 0 0.0115 (100%) (99.4%) (100%) (98.2%) (100%) (97.3%) 3-4d 0 0.063 ...

[3] = 20 mg/kg Amanita exitialis oral, biliary drainage, plasma, mean ± SD
[4] = 60 mg/kg Amanita exitialis oral, biliary drainage, plasma, mean ± SD

With `CC[C@H](C)[C@@H]1NC(=O)CNC(=O)[C@@H]2Cc3c([nH]c4cc(O)ccc34)[S@+]([O-])C[C@H](NC(=O)CNC1=O)C(=O)N[C@@H](CC(N)=O)C(=O)N1C[C@H](O)C[C@H]1C(=O)N[C@@H]([C@@H](C)[C@@H](O)CO)C(=O)N2` [α-amanitin] the “detection rate of peptide toxins in blood” value (shortened to “detection rate”) ([1]; 0 h after ingestion, 60 mg/kg with biliary drainage group) was 0%, the T1/2 [1, 3] was 1.08 ± 0.76 h and the “AUC (0–∞)” value [1, 3] was 5.36 ± 3.17 µg·h/L. The CL/F [1, 3] was 14.2 ± 7.17 mL/min/kg, the Cmax [1, 3] was 1.73 ± 0.58 µg/L and the “Dose normalized AUC (0–∞)” value [1, 3] was 138.9 ± 82.1. For the same molecule, the “Dose normalized Cmax” value [1, 3] was 44 ± 15.1, the “MRT (0–∞)” value [1, 3] was 3.55 ± 0.8 h and the Tmax [1, 3] was 1.38 ± 0.48 h. The Vz/F [1, 3] was 1.07 ± 0.31 L/kg, the T1/2 [1, 4] was 1.2 ± 0.58 h and the “AUC (0–∞)” value [1, 4] was 31.99 ± 9.65 ^a,* µg/L × h. The CL/F [1, 4] was 6 ± 1.83 mL/min/kg, the Cmax [1, 4] was 12.25 ± 3.54 ^a,* µg/L and the “Dose normalized AUC (0–∞)” value [1, 4] was 238.2 ± 83.9. For the same molecule, the “Dose normalized Cmax” value [1, 4] was 86.1 ± 30.8, the “MRT (0–∞)” value [1, 4] was 2.87 ± 0.43 h and the Tmax [1, 4] was 1.13 ± 0.25 h. For the same molecule, the “detection rate” value ([1]; 0.25 h after ingestion, 20 mg/kg with biliary drainage group) was 0%, the “detection rate” value ([1]; 0.25 h after ingestion, 60 mg/kg with biliary drainage group) was 0% and the “detection rate” value ([1]; 0.5 h after ingestion, 20 mg/kg with biliary drainage group) was 33%. The “detection rate” value ([1]; 0.5 h after ingestion, 60 mg/kg with biliary drainage group) was 33%, the “detection rate” value ([1]; 1 h after ingestion, 20 mg/kg with biliary drainage group) was 100% and the “detection rate” value ([1]; 1 h after ingestion, 60 mg/kg with biliary drainage group) was 100%. The “detection rate” value ([1]; 1.5 h after ingestion, 20 mg/kg with biliary drainage group) was 100%, the “detection rate” value ([1]; 1.5 h after ingestion, 60 mg/kg with biliary drainage group) was 100% and the “detection rate” value ([1]; 2 h after ingestion, 20 mg/kg with biliary drainage group) was 100%. For the same molecule, the “detection rate” value ([1]; 2 h after ingestion, 60 mg/kg with biliary drainage group) was 100%, the “detection rate” value ([1]; 3 h after ingestion, 20 mg/kg with biliary drainage group) was 100% and the “detection rate” value ([1]; 3 h after ingestion, 60 mg/kg with biliary drainage group) was 100%. The “detection rate” value ([1]; 4 h after ingestion, 20 mg/kg with biliary drainage group) was 100%, the “detection rate” value ([1]; 4 h after ingestion, 60 mg/kg with biliary drainage group) was 100% and the “detection rate” value ([1]; 5 h after ingestion, 20 mg/kg with biliary drainage group) was 100%. The “detection rate” value ([1]; 5 h after ingestion, 60 mg/kg with biliary drainage group) was 100%, the “detection rate” value ([1]; 6 h after ingestion, 20 mg/kg with biliary drainage group) was 100% and the “detection rate” value ([1]; 6 h after ingestion, 60 mg/kg with biliary drainage group) was 100%. The “detection rate” value ([1]; 8 h after ingestion, 20 mg/kg with biliary drainage group) was 50%, the “detection rate” value ([1]; 8 h after ingestion, 60 mg/kg with biliary drainage group) was 50% and the “detection rate” value ([1]; 10 h after ingestion, 20 mg/kg with biliary drainage group) was 50%. The “detection rate” value ([1]; 10 h after ingestion, 60 mg/kg with biliary drainage group) was 50%, the “detection rate” value ([1]; 12 h after ingestion, 20 mg/kg with biliary drainage group) was 17% and the “detection rate” value ([1]; 12 h after ingestion, 60 mg/kg with biliary drainage group) was 33%. For the same molecule, the “detection rate” value ([1]; 24 h after ingestion, 20 mg/kg with biliary drainage group) was 0%, the “detection rate” value ([1]; 24 h after ingestion, 60 mg/kg with biliary drainage group) was 0% and the “detection rate” value ([1]; 36 h after ingestion, 20 mg/kg with biliary drainage group) was 0%. For the same molecule, the “detection rate” value ([1]; 36 h after ingestion, 60 mg/kg with biliary drainage group) was 0%, the “detection rate” value ([1]; 48 h after ingestion, 20 mg/kg with biliary drainage group) was 0% and the “detection rate” value ([1]; 48 h after ingestion, 60 mg/kg with biliary drainage group) was 0%. The “time at which toxins were detected in plasma after ingestion” value ([1]; beagles with biliary drainage, oral Amanita exitialis) was 30 min, the Vd/F ([1]; male, beagle, dog, 60 mg/kg Amanita exitialis oral, biliary drainage, plasma, mean ± SD, read-out: Vz/F) was 0.68 ± 0.48 L/kg and the “daily amount excreted in urine, without biliary drainage” value ([2]; 0-1d, 20 mg/kg group) was 0.0379 mg. For the same molecule, the “percentage in parentheses, urine, without biliary drainage” value ([2]; 0-1d, 20 mg/kg group) was 97.9%, the “daily amount excreted in urine, without biliary drainage” value ([2]; 0-1d, 60 mg/kg group) was 0.0593 mg and the “percentage in parentheses, urine, without biliary drainage” value ([2]; 0-1d, 60 mg/kg group) was 92.8%. The “Accumulative amount excreted in urine, without biliary drainage” value ([2]; 20 mg/kg group) was 0.039 mg, the “percentage in parentheses, Accumulative amount, urine, without biliary drainage” value ([2]; 20 mg/kg group) was 100% and the “Accumulative amount excreted in urine, without biliary drainage” value ([2]; 20 mg/kg group, listed as α-Amanitin) was 0.0390 mg. For the same molecule, the “Accumulative amount excreted in urine, without biliary drainage” value ([2]; 60 mg/kg group) was 0.0630 mg, the “percentage in parentheses, Accumulative amount, urine, without biliary drainage” value ([2]; 60 mg/kg group) was 100% and the “percentage in parentheses, urine, without biliary drainage” value ([2]; 1-2d, 20 mg/kg group) was 99.995%. For the same molecule, the “daily amount excreted in urine, without biliary drainage” value ([2]; 1-2d, 60 mg/kg group) was 0.0618 mg, the “percentage in parentheses, urine, without biliary drainage” value ([2]; 1-2d, 60 mg/kg group) was 97.5% and the “daily amount excreted in urine, without biliary drainage” value ([2]; 2-3d, 20 mg/kg group) was 0.0002 mg. The “percentage in parentheses, urine, without biliary drainage” value ([2]; 2-3d, 20 mg/kg group) was 100%, the “daily amount excreted in urine, without biliary drainage” value ([2]; 2-3d, 60 mg/kg group) was 0.0626 mg and the “percentage in parentheses, urine, without biliary drainage” value ([2]; 2-3d, 60 mg/kg group) was 99.4%. For the same molecule, the “daily amount excreted in urine, without biliary drainage” value ([2]; 3-4d, 20 mg/kg group) was 0 mg, the “percentage in parentheses, urine, without biliary drainage” value ([2]; 3-4d, 20 mg/kg group) was 100% and the “daily amount excreted in urine, without biliary drainage” value ([2]; 3-4d, 60 mg/kg group) was 0.0630 mg. The “percentage in parentheses, urine, without biliary drainage” value ([2]; 3-4d, 60 mg/kg group) was 100%.
